How the values were obtained:
Assay in all cases: growth inhibition relative to DMSO (0) and positive control (1) (fraction); higher = more growth inhibition
[1] = test system: DIPGX29 (H3.3 K27M diffuse intrinsic pontine glioma line)
Description: (§1)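 Single-agent arm (compound 1 only) of the paxalisib / mirdametinib dose-matrix plates, 7 days, adherent 384-well. CellTiter-Glo RLU was normalised to fractional activity between DMSO (0) and the positive control (1).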

[2] = test system: DIPGX37 (H3.3 K27M diffuse intrinsic pontine glioma line)
Description: as §1

[3] = test system: DIPGX7 (H3.3 K27M diffuse intrinsic pontine glioma line)
Description: as §1

[4] = test system: HABS (astrocyte control)
Description: as §1

[5] = test system: HGGX42 (H3.3 G34R paediatric high-grade glioma line)
Description: as §1

[6] = test system: HGGX6 (H3.3 G34R paediatric high-grade glioma line)
Description: as §1

[7] = test system: iASTRO (astrocyte control)
Description: as §1

[8] = test system: DIPGX29; remark: listed apart in the source
Description: (§2)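 Single-agent arm (compound 2 only) of the paxalisib / mirdametinib dose-matrix plates, 7 days, adherent 384-well. CellTiter-Glo RLU was normalised to fractional activity between DMSO (0) and the positive control (1).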

[9] = test system: DIPGX37; remark: listed apart in the source
Description: as §2

[10] = test system: DIPGX7; remark: listed apart in the source
Description: as §2

[11] = test system: HABS; remark: listed apart in the source
Description: as §2

[12] = test system: HGGX42; remark: listed apart in the source
Description: as §2

[13] = test system: HGGX6; remark: listed apart in the source
Description: as §2

[14] = test system: iASTRO; remark: listed apart in the source
Description: as §2

O=C(NOC[C@H](O)CO)c1ccc(F)c(F)c1Nc1ccc(I)cc1F
growth inhibition
Settings | 0.009766 µM | 0.01953 µM | 0.03906 µM | 0.07812 µM | 0.15625 µM | 0.3125 µM | 0.625 µM | 1.25 µM | 5 µM | 20 µM
[1] | 0.0664 | 0.079 | 0.113 | 0.122 | 0.121 | 0.185 | 0.301 | 0.44 | 0.787 | 0.903
[2] | -0.0815 | -0.107 | -0.0915 | -0.0274 | 0.0635 | 0.18 | 0.339 | 0.511 | 0.9225 | 0.9749
[3] | 0.00514 | -0.0128 | -0.0429 | -0.0583 | -0.0706 | -0.0675 | -0.0189 | 0.069 | 0.226 | 0.169
[4] | -0.13 | -0.164 | -0.228 | -0.269 | -0.234 | -0.0414 | 0.126 | 0.275 | 0.665 | 0.853
[5] | -0.0885 | -0.0961 | -0.107 | -0.127 | -0.145 | -0.165 | -0.133 | -0.126 | 0.241 | 0.441
[6] | -0.059 | -0.035 | -0.0725 | -0.0513 | -0.0455 | 0.0143 | 0.0902 | 0.0994 | 0.353 | 0.581
[7] | 0.0411 | 0.0442 | 0.0806 | 0.0816 | 0.113 | 0.124 | 0.173 | 0.119 | 0.0668 | 0.0562
[8] | – | – | 0.0243 | 0.134 | 0.108 | 0.159 | 0.301 | 0.477 | 0.795 | 0.903
[9] | – | – | -0.168 | -0.0488 | 0.038 | 0.147 | 0.274 | 0.418 | 0.857 | 0.9777
[10] | – | – | -0.134 | -0.0334 | -0.0318 | -0.00916 | 0.0291 | 0.0919 | 0.221 | 0.144
[11] | – | – | -0.334 | -0.268 | -0.258 | -0.201 | -0.0364 | 0.168 | 0.618 | 0.797
[12] | – | – | -0.199 | -0.114 | -0.121 | -0.215 | -0.198 | -0.0799 | 0.284 | 0.494
[13] | – | – | -0.174 | -0.0709 | -0.0557 | 0.064 | 0.133 | 0.156 | 0.414 | 0.596
[14] | – | – | 0.0464 | 0.0732 | 0.0675 | 0.0849 | 0.116 | 0.0295 | 0.0268 | 0.058

CC1(C)OCCn2c1nc1c(N3CCOCC3)nc(-c3cnc(N)nc3)nc12 [GDC0084]
growth inhibition
Settings | 0.009766 µM | 0.01953 µM | 0.03906 µM | 0.07812 µM | 0.15625 µM | 0.3125 µM | 0.625 µM | 1.25 µM | 5 µM | 20 µM
[1] | 0.073 | 0.102 | 0.178 | 0.216 | 0.266 | 0.357 | 0.491 | 0.595 | 0.8914 | 0.9212
[2] | -0.0429 | -0.0173 | 0.0381 | 0.138 | 0.304 | 0.453 | 0.566 | 0.71 | 0.9509 | 0.9986
[3] | 0.0627 | 0.0708 | 0.104 | 0.186 | 0.381 | 0.622 | 0.771 | 0.8548 | 0.9176 | 0.977
[4] | 0.075 | 0.0784 | 0.0871 | 0.118 | 0.171 | 0.208 | 0.326 | 0.489 | 0.807 | 0.9807
[5] | 0.0532 | 0.0705 | 0.164 | 0.226 | 0.378 | 0.528 | 0.685 | 0.777 | 0.885 | 0.913
[6] | -0.0247 | -0.0158 | 0.0132 | 0.0493 | 0.125 | 0.232 | 0.359 | 0.507 | 0.758 | 0.869
[7] | 0.019 | 0.0114 | 0.00198 | 0.00243 | 0.00554 | -0.0144 | -0.0681 | -0.0251 | 0.577 | 0.706
[8] | – | – | 0.0637 | 0.169 | 0.232 | 0.295 | 0.423 | 0.603 | 0.87 | 0.9389
[9] | – | – | -0.00546 | 0.192 | 0.323 | 0.499 | 0.598 | 0.756 | 0.9558 | 0.99839
[10] | – | – | 0.051 | 0.197 | 0.446 | 0.658 | 0.787 | 0.8579 | 0.9157 | 0.9671
[11] | – | – | -0.0282 | 0.105 | 0.153 | 0.193 | 0.29 | 0.463 | 0.807 | 0.9834
[12] | – | – | 0.112 | 0.274 | 0.471 | 0.516 | 0.673 | 0.782 | 0.8721 | 0.898
[13] | – | – | -0.045 | 0.0144 | 0.106 | 0.211 | 0.329 | 0.486 | 0.741 | 0.872
[14] | – | – | 0.0361 | 0.0247 | 0.0269 | -0.0092 | -0.0383 | 0.0569 | 0.631 | 0.726

Reference: the supplement of paper PMC8253809
